Data from PubChem BioAssay (NCI).
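How tested: cells in 96-well plates exposed to compound for 48 hours at five concentrations. Abbreviation: GI50, concentration required for 50% inhibition of growth. Definition used: TGI = concentration required for complete inhibition of growth.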

What was measured:
Experiment in all cases: NCI anticancer screen, dose series, 48 h
[1] = system: HT29 colon
[2] = system: TK-10 renal
[3] = system: RPMI-8226 leukemia
[4] = system: M14 melanoma
[5] = system: UACC-257 melanoma
[6] = system: HOP-92 NSCLC
[7] = system: SF-539 CNS

COc1cc2cnc3c4cc(OCc5ccccc5)ccc4ccc3c2cc1OC
TGI [1]: > 100 µM | TGI [2]: 44 µM | TGI [3]: 20.2 µM | TGI [4]: > 100 µM | TGI [5]: > 100 µM | TGI [6]: > 100 µM | TGI [7]: > 100 µM

CNC(=O)CN(CC(=O)O)C(=O)NC
TGI [1]: > 100 µM | TGI [2]: > 100 µM | TGI [3]: > 100 µM | TGI [4]: > 100 µM | TGI [5]: > 100 µM | TGI [6]: > 100 µM | TGI [7]: > 100 µM

CCC(CO)Nc1nc2c(c(=O)n(C)c(=O)n2C)n1CCO (stereo not drawn)
TGI [1]: > 100 µM | TGI [2]: > 100 µM | TGI [3]: > 100 µM | TGI [5]: > 100 µM | TGI [6]: > 100 µM | TGI [7]: > 100 µM

C=C1C(OC(C)=O)CC(OC(C)=O)C2(C)C(OC(C)=O)C(OC(C)=O)C3=C(C)C(OC(=O)/C=C/c4ccccc4)CC(C(OC(C)=O)C12)C3(C)C (stereo not drawn)
TGI [1]: > 100 µM | TGI [2]: > 100 µM | TGI [3]: > 100 µM | TGI [4]: > 100 µM | TGI [5]: > 100 µM | TGI [6]: 65.7 µM | TGI [7]: > 100 µM

COc1ccc2c(c1)CCc1c-2n[nH]c1-c1[nH]nc2c1CCc1cc(OC)ccc1-2
TGI [1]: > 100 µM | TGI [2]: > 100 µM | TGI [4]: > 100 µM | TGI [5]: > 100 µM | TGI [6]: 78.1 µM | TGI [7]: 63.2 µM

COc1ccc2c(c1)CN1CCc3c(cc(OC)c(OC)c3OC)C1C2 (stereo not drawn)
TGI [1]: > 100 µM | TGI [2]: > 100 µM | TGI [3]: > 100 µM | TGI [4]: > 100 µM | TGI [5]: > 100 µM | TGI [6]: > 100 µM | TGI [7]: > 100 µM

COc1ccc(OC(C)C(=O)O)c2c(=O)ccccc12 (stereo not drawn)
TGI [1]: > 100 µM | TGI [2]: > 100 µM | TGI [3]: > 100 µM | TGI [4]: > 100 µM | TGI [5]: > 100 µM | TGI [7]: > 100 µM

COc1cc(/C=N/N=C(\N)NO)c([N+](=O)[O-])cc1OC
TGI [1]: > 100 µM | TGI [2]: > 100 µM | TGI [3]: > 100 µM | TGI [4]: > 100 µM | TGI [5]: > 100 µM | TGI [6]: 91.7 µM | TGI [7]: > 100 µM

CC[PH+](CC)CC.[Cl][Au]
GI50 [1]: 3.84 µM | TGI [1]: 8.96 µM | GI50 [2]: 2 µM | TGI [2]: 3.51 µM | GI50 [3]: 1.03 µM | TGI [3]: 3.84 µM | GI50 [4]: 1.17 µM | TGI [4]: 2.53 µM | GI50 [5]: 1.09 µM | TGI [5]: 2.36 µM | GI50 [6]: 1.28 µM | TGI [6]: 2.72 µM | GI50 [7]: 2.35 µM | TGI [7]: 7.36 µM

CCC[CH2][Sn]1([CH2]CCC)[S]CC[N]1S(=O)(=O)c1ccc(C)cc1
GI50 [1]: 2.04 µM | TGI [1]: 3.73 µM | GI50 [2]: 1.64 µM | TGI [2]: 3.04 µM | GI50 [3]: 0.386 µM | TGI [3]: 2.01 µM | GI50 [4]: 1.64 µM | TGI [4]: 3.12 µM | GI50 [5]: 1.23 µM | TGI [5]: 2.5 µM | GI50 [6]: 1.19 µM | TGI [6]: 2.46 µM | GI50 [7]: 1.36 µM | TGI [7]: 2.68 µM

CCCCN(CCCC)CC(C(C)=O)C(c1ccccc1)c1c(O)c2ccccc2oc1=O (stereo not drawn)
TGI [1]: > 100 µM | TGI [2]: > 100 µM | TGI [3]: > 100 µM | TGI [4]: > 100 µM | TGI [5]: > 100 µM | TGI [6]: > 100 µM | TGI [7]: > 100 µM

CC(=O)NN1C(=O)C(Cc2ccccc2)c2ccccc21 (stereo not drawn)
TGI [1]: > 100 µM | TGI [2]: > 100 µM | TGI [3]: > 100 µM | TGI [4]: > 100 µM | TGI [5]: > 100 µM | TGI [6]: > 100 µM | TGI [7]: > 100 µM

O/N=C/c1ccc(O)c(O)c1
TGI [1]: > 100 µM | TGI [2]: > 100 µM | TGI [4]: > 100 µM | TGI [5]: > 100 µM | TGI [6]: > 100 µM | TGI [7]: > 100 µM

CC(=O)[CH-]C(=O)c1ccccc1.CC(=O)[CH-]C(=O)c1ccccc1.[O-]c1ccc2c(c1)OCO2.[O-]c1ccc2c(c1)OCO2.[Ti+4]
GI50 [1]: 26.8 µM | TGI [1]: > 100 µM | GI50 [3]: 18.3 µM | TGI [3]: 50.9 µM | GI50 [4]: 20.2 µM | TGI [4]: 44.4 µM | GI50 [5]: 44 µM | TGI [5]: > 100 µM | GI50 [6]: 21.1 µM | TGI [6]: > 100 µM | GI50 [7]: 28.4 µM | TGI [7]: > 100 µM

COC(=O)C1CCc2nnc(-c3ccccc3)n21 (stereo not drawn)
TGI [1]: > 100 µM | TGI [2]: > 100 µM | TGI [3]: > 100 µM | TGI [4]: > 100 µM | TGI [5]: > 100 µM | TGI [6]: > 100 µM | TGI [7]: > 100 µM

NC(=O)c1ccc(Cl)c([N+](=O)[O-])c1
TGI [1]: > 100 µM | TGI [2]: > 100 µM | TGI [4]: > 100 µM | TGI [5]: > 100 µM | TGI [6]: > 100 µM | TGI [7]: > 100 µM

C[C@H]1C=C2C(=O)O[C@H]3CC[C@@H](C1)[C@@]23O
TGI [1]: 16.9 µM | TGI [2]: 8 µM | TGI [3]: > 100 µM | TGI [4]: 14.7 µM | TGI [5]: 22.9 µM | TGI [6]: 16.3 µM | TGI [7]: 4.25 µM

CO[C@@]1(c2ccccc2)O[C@H]2OCCC2[C@H]1c1ccc(Cl)cc1 (stereo partly drawn)
TGI [1]: 50.6 µM | TGI [2]: > 100 µM | TGI [3]: > 100 µM | TGI [4]: > 100 µM | TGI [5]: 44.6 µM | TGI [7]: > 100 µM

CC(=O)[O-].N.N.N.N.[Co+3].[O-][Cl+3]([O-])([O-])[O-].[OH3+]
GI50 [1]: > 100 µM | TGI [1]: > 100 µM | GI50 [2]: > 100 µM | TGI [2]: > 100 µM | GI50 [3]: > 100 µM | TGI [3]: > 100 µM | GI50 [4]: > 100 µM | TGI [4]: > 100 µM | GI50 [5]: > 100 µM | TGI [5]: > 100 µM | GI50 [6]: > 100 µM | TGI [6]: > 100 µM

c1ccc(OC2=NC3=S(S2)SC(Oc2ccccc2)=N3)cc1
TGI [1]: 40.2 µM | TGI [2]: 33 µM | TGI [3]: 24.8 µM | TGI [4]: 34.8 µM | TGI [5]: 34.7 µM | TGI [7]: 54.6 µM

CC1=CCCC2C(C=O)(C1)CC(C)C2(CO)CC/C(=C/CO)CO (stereo not drawn)
TGI [1]: > 100 µM | TGI [2]: > 100 µM | TGI [3]: > 100 µM | TGI [4]: > 100 µM | TGI [5]: > 100 µM | TGI [6]: 87.6 µM
